Results from patent US10227331B2 (priority 2015, dated 2019).

What was measured:
[1] = system: P. aeruginosa expressing IMP-1, efflux− (MB9799); assay: Efflux: concentration of MBL inhibitor which restores susceptibility to imipenem; assay type: cell-based, Pseudomonas aeruginosa; conditions: imipenem at 2 μg/mL, in the presence of a class A, C, D serine β-lactamase inhibitor closely related to relebactam
Excerpt: (§1) The strain background is Pseudomonas aeruginosa PAO1.

[2] = system: P. aeruginosa expressing IMP-1, efflux+ (MB9798); assay type: cell-based, Pseudomonas aeruginosa; conditions: for P. aeruginosa expressing IMP-1, efflux+ (MB9798) MITC95: imipenem at 2 μg/mL, in the presence of a class A, C, D serine β-lactamase inhibitor closely related to relebactam; for Efflux ratio: ratio MITC95 PA_9798/MITC95 PA_9799
Excerpt: as §1

IMP-1 = IMP-1 (Serratia marcescens, UniProt P52699); assay: biochemical; assay type: biochemical; conditions: CCF2-FA substrate, 2 hours at 25° C; read-out: IMP-1 IC50
In short: (§2)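 Class B activity is measured in the presence of compound by fluorescence with CCF2-FA after a 2-hour incubation at 25° C. IC50 is taken from a 4-parameter fit of semi-logarithmic dose-response data.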

NDM-1 = NDM-1 (Klebsiella pneumoniae, UniProt C7C422); assay: biochemical; assay type: biochemical; conditions: CCF2-FA substrate, 2 hours at 25° C; read-out: NDM-1 IC50
In short: as §2

VIM-1 = VIM-1 (Pseudomonas aeruginosa (strain ATCC 15692 / DSM 22644 / CIP 104116 / JCM 14847 / LMG 12228 / 1C / PRS 101 / PAO1), UniProt A0A0F7KYQ8); assay: biochemical; conditions: CCF2-FA substrate, 2 hours at 25° C
In short: as §2

[3] = system: Klebsiella pneumoniae expressing VIM-1 (IHMA599644); assay type: cell-based; conditions: with imipenem 1 μg/ml, 95% inhibition of bacterial growth; for Klebsiella pneumoniae MITC95: VIM-1 (IHMA599644)
In short: (§3)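 Clinical strains grown overnight on blood agar, then diluted 1:100 in 1.1× CAMHB and exposed to test compound with imipenem at 1 μg/ml. Incubation was 22–24 h at 35° C; growth was read by absorbance to find the compound concentration restoring imipenem susceptibility.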

[4] = system: Escherichia coli expressing NDM-1 (CLB30005, CLB30016); assay type: cell-based; conditions: with imipenem 1 μg/ml, 95% inhibition of bacterial growth; for Escherichia coli MITC95: NDM-1 (CLB30016)
In short: as §3

[5] = system: Serratia marcescens expressing IMP-1 (CL5741); assay type: cell-based; conditions: with imipenem 1 μg/ml, 95% inhibition of bacterial growth; for Serratia marcescens MITC95: IMP-1 (CL5741)
In short: as §3

NDM-1, sequence (C7C422 whole entry, looked up, species assumed): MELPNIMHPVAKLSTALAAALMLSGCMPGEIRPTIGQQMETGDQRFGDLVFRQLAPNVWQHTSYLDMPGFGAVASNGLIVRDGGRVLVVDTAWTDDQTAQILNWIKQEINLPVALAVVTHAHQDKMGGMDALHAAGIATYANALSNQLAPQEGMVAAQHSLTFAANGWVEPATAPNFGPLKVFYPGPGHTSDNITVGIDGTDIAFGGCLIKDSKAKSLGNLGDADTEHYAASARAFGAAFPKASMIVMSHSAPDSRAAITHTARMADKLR
IMP-1, sequence (P52699 whole entry, looked up, species assumed): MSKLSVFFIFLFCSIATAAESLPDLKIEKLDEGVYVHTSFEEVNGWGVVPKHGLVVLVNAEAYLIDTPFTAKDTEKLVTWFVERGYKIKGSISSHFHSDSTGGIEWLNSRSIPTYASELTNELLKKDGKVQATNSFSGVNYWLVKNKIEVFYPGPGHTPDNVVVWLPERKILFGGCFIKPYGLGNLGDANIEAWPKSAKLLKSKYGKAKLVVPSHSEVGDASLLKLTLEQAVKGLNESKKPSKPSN

| SMILES | P. aeruginosa expressing IMP-1, efflux− (MB9799) MITC95 [1] | P. aeruginosa expressing IMP-1, efflux+ (MB9798) MITC95 [2] | Efflux ratio [2] | IC50 (IMP-1) | IC50 (NDM-1) | IC50 (VIM-1) | Klebsiella pneumoniae expressing VIM-1 (IHMA599644) MITC95 [3] | Escherichia coli expressing NDM-1 (CLB30016) MITC95 [4] | Serratia marcescens expressing IMP-1 (CL5741) MITC95 [5] | Klebsiella pneumoniae MITC95 [3] | Escherichia coli MITC95 [4] | Serratia marcescens MITC95 [5] |
| --- | --- | --- | --- | --- | --- | --- | --- | --- | --- | --- | --- | --- |
| NS(=O)(=O)c1c(S(=O)(=O)C2CNC2)ccc(-c2cnc3ccccc3c2)c1-c1nnn[nH]1.O=C(O)C(F)(F)F [Example 98, 3-((4-(quinolin-3-yl)-2-sulfamoyl-3-(1H-tetrazol-5-yl)phenyl)sulfonyl)azetidin-1-ium 2,2,2-trifluoroacetate] | 1.563 µM | 25 µM | 15.99 | 1970 pM | 400 pM | 241 pM | 3.125 µM | 3.125 µM | 3.125 µM |  |  |  |
| COc1cc(-c2ccc(S(=O)(=O)CCN)c(S(N)(=O)=O)c2-c2nnn[nH]2)cnc1N.O=C(O)C(F)(F)F [Example 169, 2-((4-(6-amino-5-methoxypyridin-3-yl)-2-sulfamoyl-3-(1H-tetrazol-5-yl)phenyl)sulfonyl)ethanaminium 2,2,2-trifluoroacetate] | 1.563 µM | 25 µM | 15.99 | 5270 pM | 6000 pM | 1030 pM | 6.25 µM | 0.7813 µM | 3.125 µM |  |  |  |
| Nc1nc2cc(F)cc(-c3ccc(S(=O)(=O)C4CNC4)c(S(N)(=O)=O)c3-c3nnn[nH]3)c2[nH]1 [Example 262, 3-(2-amino-5-fluoro-1H-benzo[d]imidazol-7-yl)-6-(azetidin-3-ylsulfonyl)-2-(1H-tetrazol-5-yl) benzenesulfonamide] | 0.7813 µM | 0.7813 µM | 1.00 | 506 pM | 80.3 pM | 322 pM |  |  |  | 3.125 µM | 0.7813 µM | 1.563 µM |
| NCCS(=O)(=O)c1ccc(-c2cccc3cnccc23)c(-c2nnn[nH]2)c1S(N)(=O)=O.O=C(O)C(F)(F)F [Example 171] | 1.563 µM | 12.5 µM | 8.00 | 1020 pM | 306 pM | 272 pM | 6.25 µM | 1.563 µM | 3.125 µM |  |  |  |
| C[C@@H](N)CS(=O)(=O)c1ccc(-c2cccc3[nH]c(C(=O)O)nc23)c(-c2nn[nH]n2)c1S(N)(=O)=O [Example 348, Ammonium (R)-4-(4-((2-aminopropyl)sulfonyl)-3-sulfamoyl-2-(2H-tetrazol-5-yl)phenyl)-1H-benzo[d]imidazole-2-carboxylate] | 3.125 µM | 25 µM | 8.00 | 847 pM | 163 pM | 478 pM |  |  |  | 6.25 µM | 3.125 µM | 3.125 µM |
| C[C@@H](N)CS(=O)(=O)c1ccc(-c2cccc3sc(N)nc23)c(-c2nn[nH]n2)c1S(N)(=O)=O [Example 268, 3-(2-aminobenzo[d]thiazol-4-yl)-6-((R)-2-aminopropylsulfonyl)-2-(2H-tetrazol-5-yl)benzenesulfonamide] | 1.563 µM | 1.563 µM | 1.00 | 363 pM | 177 pM | 329 pM |  |  |  | 3.125 µM | 1.563 µM | 1.563 µM |
| NCCS(=O)(=O)c1ccc(-c2cccc3nc(C(=O)O)nn23)c(-c2nnn[nH]2)c1S(N)(=O)=O [Example 304, 5-(4-((2-aminoethyl)sulfonyl)-3-sulfamoyl-2-(1H-tetrazol-5-yl)phenyl)-[1,2,4]triazolo [1,5-a]pyridine-2-carb oxylic Acid] | 12.5 µM | 25 µM | 2.00 | 5360 pM | 214 pM | 478 pM |  |  |  | 50 µM | 6.25 µM | 6.25 µM |
| Nc1nc2c(-c3ccc(S(=O)(=O)CCO)c(S(N)(=O)=O)c3-c3nn[nH]n3)cccc2s1 [Example 314, 3-(2-aminobenzo[d]thiazol-4-yl)-6-((2-hydroxyethyl)sulfonyl)-2-(2H-tetrazol-5-yl)benzenesulfonamide] | 6.25 µM | 12.5 µM | 2.00 | 445 pM | 379 pM | 726 pM |  |  |  | 12.5 µM | 12.5 µM | 6.25 µM |
| Nc1nc2cccc(-c3ccc(S(=O)(=O)[C@H]4CCNC4)c(S(N)(=O)=O)c3-c3nn[nH]n3)c2[nH]1 [Example 182, 3-(2-amino-3H-benzo[d]imidazol-4-yl)-6-((S)-pyrrolidin-3-ylsulfonyl)-2-(2H-tetrazol-5-yl)benzenesulfonamide] | 0.6406 µM | 0.6406 µM | 1.00 | 979 pM | 154 pM | 210 pM | 0.8906 µM | 0.25 µM | 0.6406 µM |  |  |  |
| CN(C)CCS(=O)(=O)c1ccc(-c2cccc3sc(N)nc23)c(-c2nn[nH]n2)c1S(N)(=O)=O [Example 326, 3-(2-aminobenzo[d]thiazol-4-yl)-6-((2-(dimethylamino)ethyl)sulfonyl)-2-(2H-tetrazol-5-yl)benzenesulfonamide] | 1.563 µM | 1.563 µM | 1.00 | 248 pM | 76.1 pM | 167 pM |  |  |  | 6.25 µM | 3.125 µM | 3.125 µM |
| NS(=O)(=O)c1c(S(=O)(=O)C2CNC2)ccc(-c2ccc3ccncc3c2)c1-c1nnn[nH]1.O=C(O)C(F)(F)F [Example 131, 3-((4-(isoquinolin-7-yl)-2-sulfamoyl-3-(1H-tetrazol-5-yl)phenyl)sulfonyl)azetidin-1-ium 2,2,2-trifluoroacetate] | 1.563 µM | 25 µM | 15.99 | 510 pM | 345 pM | 130 pM | 3.125 µM | 0.7813 µM | 3.125 µM |  |  |  |
